The text below walks through data of article PMC4186413, “Identification of metabolic pathways and enzyme systems involved in the in vitro human hepatic metabolism of dronedarone, a potent new oral antiarrhythmic drug” (Pharmacology Research & Perspectives, 2014).

One series concerns Total CYPs. The series is described as follows: Contribution of total CYPs to hepatocyte clearance (1-aminobenzotriazole inhibitory effect). It is filed as in vitro ADME, human. As to conditions: for Effect of ABT on metabolism in hepatocytes (words): 1 mmol/L ABT, 5 μmol/L drug; for fm Total CYPs, Mean ± SD: mean of hepatocyte preparations. How it is done: (§1) Experiments were performed in 48-well plastic plates coated with rat tail Collagen type I. Plates were seeded with 0.16 × 10^5 hepatocytes per well in a final volume of 0.2 mL and incubated at 37°C under a 95% humidified air and 5% CO2 atmosphere. After 3 h during which cells were allowed to attach, the medium was renewed with 0.1 mL serum-free medium. Then, the investigated drug or metabolic probe(s) were added directly to the incubation medium in the absence or the presence of inhibitors such as either ketoconazole as a specific and potent CYP3A inhibitor (3 μmol/L final concentration), clorgyline (0.25 μmol/L final concentration) as a potent MAO-A inhibitor or ABT as a potent but nonselective CYP isoforms inhibitor (1 mmol/L final concentration) (Fabre et al. [1988]; Bourrié et al. [1996]; Klieber et al. [2008]). Regardless of the final concentration investigated, the final solvent (DMSO) concentration never exceeded 0.2% (v/v).
(§2) To determine the metabolism of the different compounds (metabolic probes, dronedarone, N-debutyl-dronedarone, propanoic acid-dronedarone, phenol-dronedarone, and C-dealkyl-dronedarone), kinetic studies were performed over 0–24 h. For each time point, 0.1 mL of acetonitrile was added to the specific well for protein precipitation, and both extracellular medium and the cell fraction were scraped together. Cell extracts were transferred to a glass tube and stored at −20°C until analysis. Before analysis, cell homogenates were sonicated for a few seconds, homogenized and centrifuged at 6000 g for 10 min. Supernatant fluids were then analyzed for the different drugs and their specific metabolites.
(§3) The fraction metabolized (fm) by MAO, CYP3A or total CYPs was determined using the following equation: [drawing 3] where: kei is the elimination rate constant (expressed in h^−1) in the presence of the inhibitor.
(§4) The kinetics of drug disappearance were investigated using four different cryopreserved human hepatocyte preparations in primary cultures following incubation with either dronedarone or its metabolites at a concentration of 5 μmol/L. Incubations were performed either in the absence, that is control conditions, or in the presence of enzyme system inhibitors such as 3 μmol/L ketoconazole (specific and potent inhibitor of CYP3A4/5), 1 mmol/L ABT (a potent and […] inhibitor of total CYPs), or 0.25 μmol/L clorgyline (a potent MAO-A inhibitor) (Dorris [1982]). Kinetic studies were performed over 24 h.

The subject of another series is CYP3A4. The series is described as follows: Contribution of CYP3A4 to hepatocyte clearance (ketoconazole inhibitory effect). As to conditions: for Effect of ketoconazole on metabolism in hepatocytes: 5 μmol/L drug; for fm CYP3A4, Mean ± SD: mean of hepatocyte preparations. It is filed as in vitro ADME, human. Here is the method: as §1, §2, §3, §4
For another series, the target named is T1, MAO (Homo sapiens, UniProt P21397).
T1 construct: host or cells: cryopreserved human hepatocytes in primary culture
T1 sequence (P21397 1-527): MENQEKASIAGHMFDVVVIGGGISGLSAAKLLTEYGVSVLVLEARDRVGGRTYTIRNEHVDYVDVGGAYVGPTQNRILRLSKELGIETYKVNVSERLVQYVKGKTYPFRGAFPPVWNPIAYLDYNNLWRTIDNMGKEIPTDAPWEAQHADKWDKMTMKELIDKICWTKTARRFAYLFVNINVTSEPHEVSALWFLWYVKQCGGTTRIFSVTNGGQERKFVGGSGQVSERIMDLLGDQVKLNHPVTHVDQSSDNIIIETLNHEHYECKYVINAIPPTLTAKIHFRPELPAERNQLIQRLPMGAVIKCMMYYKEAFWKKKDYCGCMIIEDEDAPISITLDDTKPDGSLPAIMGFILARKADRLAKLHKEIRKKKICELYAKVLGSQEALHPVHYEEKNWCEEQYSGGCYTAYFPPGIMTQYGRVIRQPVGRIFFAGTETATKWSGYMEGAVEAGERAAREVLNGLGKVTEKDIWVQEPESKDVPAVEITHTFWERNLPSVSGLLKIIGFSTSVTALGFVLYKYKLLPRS
The series is described as follows: Contribution of MAO to hepatocyte clearance (clorgyline inhibitory effect). Format: in vitro ADME. Conditions: for Effect of clorgyline on metabolism in hepatocytes: 5 μmol/L drug; for fm MAO, Mean ± SD: mean of hepatocyte preparations. How it is done: as §1, §2, §3, §4

Where [1] appears, read: BD-91, 1 mmol/L 1-aminobenzotriazole.
The mark [2] stands for this setting: BD-296, 1 mmol/L 1-aminobenzotriazole.
[3] abbreviates: HU-1358, 1 mmol/L 1-aminobenzotriazole.
[4] abbreviates: IVT-IBG, 1 mmol/L 1-aminobenzotriazole.
[5] abbreviates: HU-1358, 0.25 μmol/L clorgyline.
Setting [6] is: IVT-IBG, 0.25 μmol/L clorgyline.

With `CCCCc1oc2ccc(NS(C)(=O)=O)cc2c1C(=O)c1ccc(OCCC(=O)O)cc1` [Propanoic acid-dronedarone], in the series with Total CYPs, the “Effect of ABT on metabolism in hepatocytes (words)” value (from here on “Effect of ABT on metabolism”) was “potently inhibited”. Further, the “fm Total CYPs” value with Total CYPs (setting [1]) stood at 87%; in the series on Total CYPs (setting [2]) it was 92%; in the series on Total CYPs (setting [3]) it was 91%; in the series with Total CYPs (setting [4]), 89%. The “fm Total CYPs, Mean ± SD” value in the series on Total CYPs (1 mmol/L 1-aminobenzotriazole) was found to be 90 ± 3%. The “Effect of ketoconazole on metabolism in hepatocytes” value (from here on “Effect of ketoconazole”) in the series with CYP3A4 (3 μmol/L ketoconazole) is on record as “very minor inhibitory effect”. In addition, the “fm CYP3A4” value with CYP3A4 (BD-91, 3 μmol/L ketoconazole) was 36%; in the series with CYP3A4 (BD-296, 3 μmol/L ketoconazole), 41%; with CYP3A4 (HU-1358, 3 μmol/L ketoconazole) it was 33%; in the series on CYP3A4 (IVT-IBG, 3 μmol/L ketoconazole), 34%. Moreover, the “fm CYP3A4, Mean ± SD” value in the series on CYP3A4 (3 μmol/L ketoconazole) was found to be 36 ± 3%. Moreover, on MAO (0.25 μmol/L clorgyline), the “Effect of clorgyline on metabolism in hepatocytes” value (“Effect of clorgyline on metabolism” for short) is listed as “no inhibitory effect”. Besides, the “fm MAO” value is reported as 12% at MAO (BD-91, 0.25 μmol/L clorgyline); 0% on MAO (BD-296, 0.25 μmol/L clorgyline); 0% at MAO (setting [5]); 0% at MAO (setting [6]). For the same compound, at MAO (0.25 μmol/L clorgyline), the “fm MAO, Mean ± SD” value is 3 ± 5%.

As to `CCCCc1oc2ccc(NS(C)(=O)=O)cc2c1C(=O)c1ccc(OCCCN(CCCC)CCCC)cc1.Cl` [Dronedarone, N-(2-Butyl-3-(4-(3-(dibutylamino)propoxy)benzoyl)-5-benzofuranyl)methanesulfonamide, hydrochloride], the “Effect of ABT on metabolism” value with Total CYPs is reported as “predominant inhibitory effect”. Besides, the “fm Total CYPs” value was 98% in the series with Total CYPs (setting [1]), 99% in the series on Total CYPs (setting [2]), 98% in the series with Total CYPs (setting [3]) and 95% with Total CYPs (setting [4]). Also, the “fm Total CYPs, Mean ± SD” value with Total CYPs (1 mmol/L 1-aminobenzotriazole) stood at 98 ± 2%. Also, the “Effect of ketoconazole” value in the series on CYP3A4 (3 μmol/L ketoconazole) is recorded as “predominant inhibitory effect”. Further, the “fm CYP3A4” value in the series with CYP3A4 (BD-91, 3 μmol/L ketoconazole) is 95%; with CYP3A4 (BD-296, 3 μmol/L ketoconazole), 95%; in the series with CYP3A4 (HU-1358, 3 μmol/L ketoconazole), 84%; with CYP3A4 (IVT-IBG, 3 μmol/L ketoconazole), 80%. In addition, the “fm CYP3A4, Mean ± SD” value in the series on CYP3A4 (3 μmol/L ketoconazole) stood at 89 ± 7%. Besides, on MAO (0.25 μmol/L clorgyline), the “Effect of clorgyline on metabolism” value is listed as “minor inhibitory effect”. Also, the “fm MAO” value on MAO (BD-91, 0.25 μmol/L clorgyline) came to 18%; on MAO (setting [5]), 23%; at MAO (setting [6]), 43%. In addition, the “fm MAO, Mean ± SD” value at MAO (0.25 μmol/L clorgyline) turned out to be 29 ± 14%.

Consider `CCCCNCCCOc1ccc(C(=O)c2c(CCCC)oc3ccc(NS(C)(=O)=O)cc23)cc1` [N-debutyl-dronedarone], for which the “Effect of ABT on metabolism” value with Total CYPs is “moderately decreased its metabolic rate”. In addition, the “fm Total CYPs” value with Total CYPs (setting [1]) was determined as 67%; in the series with Total CYPs (setting [2]), 48%; in the series with Total CYPs (setting [3]), 51%; in the series on Total CYPs (setting [4]), 54%. The “fm Total CYPs, Mean ± SD” value in the series with Total CYPs (1 mmol/L 1-aminobenzotriazole) stood at 55 ± 7%. Also, the “Effect of ketoconazole” value in the series with CYP3A4 (3 μmol/L ketoconazole) is on record as “no inhibitory effect”. For the same compound, the “fm CYP3A4” value with CYP3A4 (BD-91, 3 μmol/L ketoconazole) turned out to be 7%; in the series on CYP3A4 (BD-296, 3 μmol/L ketoconazole), 4%; with CYP3A4 (HU-1358, 3 μmol/L ketoconazole) it was 8%; with CYP3A4 (IVT-IBG, 3 μmol/L ketoconazole), 0%. Besides, in the series with CYP3A4 (3 μmol/L ketoconazole), the “fm CYP3A4, Mean ± SD” value came out at 5 ± 3%. In addition, the “Effect of clorgyline on metabolism” value at MAO (0.25 μmol/L clorgyline) is reported as “potently inhibited”. For the same compound, the “fm MAO” value is on record as 88% at MAO (BD-91, 0.25 μmol/L clorgyline); 80% on MAO (BD-296, 0.25 μmol/L clorgyline); 86% at MAO (setting [5]); 83% at MAO (setting [6]). Moreover, the “fm MAO, Mean ± SD” value on MAO (0.25 μmol/L clorgyline) was determined as 84 ± 3%.

On to `CCCCc1oc2ccc(NS(C)(=O)=O)cc2c1C(=O)c1ccc(O)cc1` [Phenol-dronedarone], for which the “Effect of ABT on metabolism” value in the series with Total CYPs is given as “did not contribute”; in the series on Total CYPs (listed as phenol-dronedarone), “no significant effect”. The “Effect of ketoconazole” value with CYP3A4 (3 μmol/L ketoconazole) is reported as “did not contribute”. At MAO (0.25 μmol/L clorgyline), the “Effect of clorgyline on metabolism” value is reported as “did not contribute”.

As to `CCCCN(CCCC)CCCOc1ccc(C(=O)O)cc1` [C-dealkyl-dronedarone], the “Effect of ABT on metabolism” value with Total CYPs is “no effect”. Moreover, the “Effect of ketoconazole” value in the series with CYP3A4 (3 μmol/L ketoconazole) was “no effect”. The “Effect of clorgyline on metabolism” value on MAO (0.25 μmol/L clorgyline) is “no effect”.
